Among the data in ChEMBL document CHEMBL1862790, “Optimisation of fenarimol series for the treatment of Chagas disease” are IC50 and IC90 values, retold here.

Data set [1] can be described thus: DNDI: Cytotoxicity against L-6 rat myoblasts from skeletal muscle cells. The settings on record: L6 rat skeletal muscle myoblast cells.
The subject of data set [2] is Trypanosoma cruzi. Kind of data set: microbe, parasite or virus in culture. It is filed as functional, organism-based, Tulahuen LacZ, Clone C4.
The subject of data set [3] is Trypanosoma cruzi. Kind of data set: microbe, parasite or virus in culture. Format: functional, Tulahuen LacZ, Clone C4.
The mark [4] stands for this setting: Trypanosoma cruzi, Tulahuen LacZ, Clone C4.

Some results are limits rather than exact numbers.

In the case of `Cc1noc(N2CCN(C(c3ccc(C#N)cc3)c3cccnc3)CC2)n1` (stereo not drawn), the results for the IC50 in data set [1] (IC50) and in data set [2] (setting [4]) were more than 100000 nM and 64 nM, respectively. In data set [3] (setting [4]), this compound gave an IC90 of 127 nM.
For `O=C(NC(c1ccc(C(F)(F)F)cc1)c1cnccn1)C1CC1` (stereo not drawn), the figures for the IC50 in data set [1] (IC50) and in data set [2] (setting [4]) were more than 100000 nM and more than 10000 nM, respectively. For the same compound, in data set [3] (setting [4]), the 90% effect concentration (IC90) is more than 10000 nM.
With `Cc1cc(C(=O)N2CCC(NC(c3ccc(C(F)(F)F)cc3)c3cccnc3)CC2)[nH]n1` (stereo not drawn), the results for the IC50 in data set [1] (IC50) and in data set [2] (setting [4]) were more than 100000 nM and 200 nM, respectively. Moreover, it took 640 nM to reach the 90% level in data set [3] (setting [4]) (IC90).
Consider `CS(=O)(=O)N1CCN(C(c2ccc(C(F)(F)F)cc2)c2cccnc2)CC1` (stereo not drawn), for which the IC50 in data set [1] (IC50) was more than 100000 nM; in data set [2] (setting [4]), 76.5 nM. It took 572 nM to reach the 90% level in data set [3] (setting [4]) (IC90).
With `OC(c1ccc(Cl)cc1)(c1cccnc1)c1cnc(OCC2CC2)nc1` (stereo not drawn), the half-maximal inhibitory concentration (IC50) in data set [1] (IC50) was determined as 60400 nM; in data set [2] (setting [4]) it was 25 nM. Moreover, the IC90 in data set [3] (setting [4]) stood at 332 nM.
In the case of `FC(F)(F)c1ccc(N2CCC(NC(c3ccc(Cl)cc3)c3cccnc3)CC2)cc1` (stereo not drawn), the IC50 in data set [1] (IC50) was 53500 nM; in data set [2] (setting [4]) it was 11 nM. This compound also gave an IC90 in data set [3] (setting [4]) of 27.5 nM.
As to `O=S(=O)(c1ccccc1)N1CCN(C(c2ccc(Cl)cc2)c2cncnc2)CC1` (stereo not drawn), the IC50 was more than 76100 nM in data set [1] (IC50) and 66 nM in data set [2] (setting [4]). In data set [3] (setting [4]), this compound gave an IC90 of 320 nM.
Consider `N#Cc1ccc(C(c2cccnc2)N2CCN(c3nccs3)CC2)cc1` (stereo not drawn), for which the IC50 in data set [1] (IC50) is more than 100000 nM; in data set [2] (setting [4]) it was 49.5 nM. The compound also yielded an IC90 in data set [3] (setting [4]) of 159 nM.
Take `Cc1noc(N2CCN(C(c3ccc(C(F)(F)F)cc3)c3cncnc3)CC2)n1` (stereo not drawn): the IC50 in data set [1] (IC50) was more than 100000 nM; in data set [2] (setting [4]), 192 nM. This compound yielded an IC90 in data set [3] (setting [4]) of 378 nM.
In the case of `OC(c1ccc(Cl)cc1)(c1cccnc1)c1ccc(Cl)cc1F` (stereo not drawn), the results for the half-maximal inhibitory concentration (IC50) in data set [1], in data set [2] and in data set [2] (setting [4]) were more than 100000 nM, 19 nM and 14 nM, respectively. For the same compound, the figures for the IC90 in data set [3] and in data set [3] (setting [4]) were 32 nM and 31 nM, respectively.
`OC(c1ccc(Cl)cc1)(c1ccc(C(F)(F)F)cc1)c1cc(-c2ccccc2)on1` (stereo not drawn): the values for the IC50 in data set [1] (IC50) and in data set [2] (setting [4]) were 18700 nM and more than 1000 nM, respectively. In data set [3] (setting [4]), this compound gave an IC90 of more than 1000 nM.
Regarding `CC(C)(C)C(=O)N1CCN(C(c2cncnc2)c2ccc(Cl)cc2F)CC1` (stereo not drawn), the 50% inhibitory concentration (IC50) is more than 100000 nM in data set [1] (IC50) and 80.5 nM in data set [2] (setting [4]). The same compound displayed an IC90 in data set [3] (setting [4]) of 302 nM.
For the compound `O=C(c1ccccc1)N1CCC(NC(c2cccnc2)c2ccc(Cl)cc2F)CC1` (stereo not drawn), the IC50 in data set [1] (IC50) was found to be 70800 nM; in data set [2] (setting [4]) it was 58 nM. The compound also had an IC90 in data set [3] (setting [4]) of 248 nM.
For `N#Cc1cccc(C(O)(c2ccc(Cl)cc2)c2cccnc2)c1` (stereo not drawn), the half-inhibitory concentration (IC50) in data set [1] (IC50) is more than 100000 nM; in data set [2] (setting [4]) it was 110 nM. This compound gave an IC90 in data set [3] (setting [4]) of 510 nM.
Consider `Fc1cc(Cl)ccc1C(NC1CCN(c2ccc(F)c(C(F)(F)F)c2)CC1)c1cccnc1` (stereo not drawn), for which the IC50 is 58600 nM in data set [1] (IC50) and 25.6 nM in data set [2] (setting [4]). Further, in data set [3] (setting [4]), it took 64 nM to reach the 90% level (IC90).
In the case of `O=C(NC1CCN(C(c2cnccn2)c2ccc(F)cc2F)CC1)c1ccc(C(F)(F)F)cc1` (stereo not drawn), the IC50 in data set [1] (IC50) worked out at 63600 nM; in data set [2] (setting [4]), 460 nM. In data set [3] (setting [4]), this compound yielded an IC90 of 900 nM.
In the case of `CC(C)C(O)(c1ccc(Cl)cc1)c1cncnc1` (stereo not drawn), the IC50 is more than 100000 nM in data set [1] (IC50) and 2240 nM in data set [2] (setting [4]). Besides, the IC90 in data set [3] (setting [4]) was found to be 21000 nM.
Take `O=C(Nc1ccccc1)N1CCC(NC(c2ccc(Cl)cc2)c2cccnc2)CC1` (stereo not drawn): the IC50 in data set [1] (IC50) was 63700 nM; in data set [2] (setting [4]), 78 nM. The compound also returned an IC90 in data set [3] (setting [4]) of 250 nM.
Take `CC(C)(C)NC(=O)N1CCN(C(c2ccc(Cl)cc2)c2cncnc2)CC1` (stereo not drawn): the IC50 in data set [1] (IC50) is more than 100000 nM; in data set [2] (setting [4]) it was 230 nM. In data set [3] (setting [4]), this compound registered an IC90 of 600 nM.
`OC(c1ccc(C(F)(F)F)cc1)(c1cccnc1)c1ccccc1F` (stereo not drawn): the IC50 in data set [1] is more than 100000 nM; in data set [2] (setting [4]) it was 22 nM. The compound also had an IC90 in data set [3] (setting [4]) of 210 nM.
As to `Fc1ccccc1C(c1ccc(C(F)(F)F)cc1)c1cccnc1` (stereo not drawn), the values for the IC50 in data set [1] and in data set [2] (setting [4]) were 64000 nM and 150 nM, respectively. In data set [3] (setting [4]), this compound displayed an IC90 of 510 nM.
Consider `COc1cncc(N2CCC(NC(c3ccc(Cl)cc3)c3cccnc3)CC2)c1` (stereo not drawn), for which the IC50 was 58900 nM in data set [1] (IC50) and 42 nM in data set [2] (setting [4]). Further, in data set [3] (setting [4]), it took 96 nM to reach the 90% level (IC90).
Regarding `CN(C)C(=O)NC(c1ccc(C(F)(F)F)cc1)c1cnccn1` (stereo not drawn), the IC50 in data set [1] (IC50) is more than 100000 nM; in data set [2] (setting [4]), more than 1000 nM. Further, the IC90 in data set [3] (setting [4]) is more than 1000 nM.
As to `FC(F)(F)c1ccc(C(NC2CCN(c3ncccn3)CC2)c2cscn2)cc1` (stereo not drawn), the values for the IC50 in data set [1] (IC50) and in data set [2] (setting [4]) were 88100 nM and more than 1000 nM, respectively. This compound also displayed an IC90 in data set [3] (setting [4]) of more than 1000 nM.
With `CC(C)CC(=O)N1CCN(C(c2ccc(Cl)cc2)c2cncnc2)CC1` (stereo not drawn), the half-inhibitory concentration (IC50) in data set [1] (IC50) was more than 100000 nM; in data set [2] (setting [4]), 430 nM. The compound further returned an IC90 in data set [3] (setting [4]) of 910 nM.
`Cc1noc(C)c1C(O)(c1ccc(Cl)cc1)c1ccc(C(F)(F)F)cc1` (stereo not drawn): the IC50 is 57900 nM in data set [1] (IC50) and more than 1000 nM in data set [2] (setting [4]). In addition, the IC90 in data set [3] (setting [4]) is more than 1000 nM.
Consider `CN(C)C(=O)c1cccc(C(O)(c2ccc(Cl)cc2)c2cccnc2)c1` (stereo not drawn), for which the results for the IC50 in data set [1] (IC50) and in data set [2] (setting [4]) were more than 100000 nM and 180 nM, respectively. This compound also registered an IC90 in data set [3] (setting [4]) of 410 nM.

The term IC50 denotes the concentration needed to halve the response being measured. A high value points to weaker potency in that assay. By IC90 is commonly meant the concentration needed for an effect of 90%. Low readings indicate an effect from little substance, high ones a need for much substance.
